Test results taken from US6350745B1, “Thrombin inhibitors” (Merck & Co., Inc., priority 1999, dated 2002).

Target: human α-thrombin (Homo sapiens, UniProt P00734)
Assay: In vitro assay for determining proteinase inhibition (thrombin)
Format: biochemical
Conditions: 25° C., 0.05 M TRIS buffer pH 7.4, 0.15 M NaCl, 0.1% PEG
Method: In vitro Assay for Determining Proteinase Inhibition
Assays of human α-thrombin and human trypsin were performed by the methods substantially as described in Thrombosis Research, Issue No. 70, page 173 (1993) by S. D. Lewis et al.
The assays were carried out at 25° C. in 0.05 M TRIS buffer pH 7.4, 0.15 M NaCl, 0.1% PEG. Trypsin assays also contained 1 mM CaCl2. In assays wherein rates of hydrolysis of a p-nitroanilide (pna) substrate were determined, a Thermomax 96-well plate reader was used was used to measure (at 405 nm) the time dependent appearance of p-nitroaniline. sar-PR-pna was used to assay human […]thrombin (Km=125 μM) and bovine trypsin (Km=125 μM). p-Nitroanilide substrate concentration was determined from measurements of absorbance at 342 nm using an extinction coefficient of 8270 cm^−1 M^−1.
In certain studies with potent inhibitors (Ki<10 nM) where the degree of inhibition of thrombin was high, a more sensitive activity assay was employed. […]
Activity assays were performed by diluting a stock solution of substrate at least tenfold to a final concentration ≦0.1 Km into a solution containing enzyme or enzyme equilibrated with inhibitor. Times required to achieve equilibration between enzyme and inhibitor were determined in control experiments. Initial velocities of product formation in the absence (Vo) or presence of inhibitor (Vi) were measured. […]

Ki: < 100 nM
SMILES: Cc1cc2c(c(=O)n1CC(=O)NCc1ncccc1F)NC(=O)OC2(CC1CC1)CC1CC1 [compound 3-1]
